Where no end group is shown, it is not given here.
Legend:
[1] = system: aerobic bacteria in whole blood; experiment: Whole blood aerobic bacterial colony forming units; assay type: in vivo, mouse (outbred Swiss Webster); conditions: for peripheral blood bacterial CFUs at 24 hours: 24 hours after CLP, nNIF 1 mg/kg or meropenem 25 mg/kg at 4 and 10 hours, serial dilution, LB-agar, 37°C 24 hours, N=5-8
Procedure: Peritoneal fluid cytokines were analyzed using a mouse Cytokine/Chemokine Panel I Multiplex Array (Millipore Sigma catalog# HCYTMAG60-PMX41) according to manufacturer’s instructions on a Luminex 200 instrument. […] Briefly, peritoneal fluid and blood samples were collected, serially diluted, plated on LB-agar dishes, and incubated at 37°C for 24 hours. The number of bacterial colonies was counted and expressed as CFU/mL.

[2] = system: peritoneal fluid and stool microbiomes; experiment: 16S rRNA gene sequencing of peritoneal fluid and stool microbiomes; assay type: in vivo, mouse (outbred Swiss Webster); conditions: CLP-treated mice; for relative abundance of Enterobacteriaceae in stool and peritoneal fluid: ANCOM-BC, relative to vehicle; for Bray-Curtis distance of peritoneal fluid microbiome from stool microbiome: each group compared to vehicle
Procedure: Libraries were constructed for sequencing approximately 460 bp of the variable V3 and V4 regions of 16S rRNA using a two-step PCR process. Genomic DNA (5 to 20 ng) was PCR amplified for 14 cycles using the Quick-16S Primer Set V3-V4 (Zymo Research cat# D6405-2-400) with NEBNext Ultra II Q5 Master Mix (NEB cat# M0544). Dual unique indexing adapters (Illumina cat#20027213) were added to the amplicons during a second PCR reaction (6 cycles). 16S libraries were qualified on an Agilent Technologies 4150 TapeStation using a D1000 ScreenTape assay (cat# 5067-5582 and 5067-5583, respectively) and the molarity of adapter-modified molecules was defined by quantitative PCR using the Kapa Biosystems Kapa Library Quant Kit (cat#KK4824). Libraries were normalized and pooled (12 pM) and chemically denatured along with 15% molar representation of PhiX library in preparation for sequencing on an Illumina MiSeq instrument in paired-end 300 cycle mode. Raw 16S sequences were read in and processed with […] 2021.11 plugins ([33]). In brief, demultiplexed and quality-filtered sequences were first trimmed of primer and linker sequences with the Cutadapt plugin, then denoised to ASVs using DADA2 ([34], [35]). […] Diversity metrics, distances, and statistical significance of beta diversity groupings by permanova were further calculated within […]2 artefacts were then read into R and genera tested for differential abundances using ANCOM-BC implemented in the microbiomeMarker package ([37], [38]). Scripts used for processing and analyses have been deposited along with processed QIIME2 artifact files at: https://github.com/wzacs1/Araujo_nNIF. Raw sequences have been deposited in the NCBI SRA under BioProject accession PRJNA884333.

[3] = system: CLP model of polymicrobial sepsis; experiment: Blinded clinical illness severity score after CLP; assay type: in vivo, mouse (outbred Swiss Webster); conditions: compared to vehicle control
Procedure: Mice were anesthetized with 3% isoflurane in an induction chamber, and anesthesia was maintained by use of inhalation via nose cone. Sepsis was induced by cecal ligation and puncture (CLP) as previously described ([30], [31]). […] The animals received subcutaneous sterile isotonic saline (0.5 mL) for fluid resuscitation immediately after surgery. Sham-operated mice were subjected to identical procedures, except that ligation and puncture of the cecum was omitted. Survival of mice subjected to CLP or sham injury was determined daily for 6 days. Twenty-four and 48 hours after CLP, all animals were scored for clinical illness severity as previously described ([32]) by an examiner blinded to treatment arm. In this assessment, higher scores reflect increased illness severity with non-surviving mice receiving a score of 10. These mice were included in the statistical analysis. In additional experiments, mature Swiss-webster mice were treated with sham surgery or CLP procedure. At 4 hours after surgery, mice underwent blinded clinical illness severity assessment, measurement of body weight and temperature, peritoneal fluid and whole blood neutrophil counts, whole blood platelet counts, and plasma creatinine level determination.

[4] = system: peritoneal fluid leukocytes; experiment: Peritoneal fluid WBC and neutrophil counts (flow cytometry); assay type: in vivo, mouse (outbred Swiss Webster); conditions: 24 hours after CLP; nNIF 1 mg/kg IV at 4 and 10 hours after CLP; N=5-9
Procedure: (§1) Twenty-four hours after CLP or sham surgery, total white blood cell and differential neutrophil counts were determined both in whole blood samples collected from orbital vein using heparinized capillaries tubes and peritoneal fluid by washing with 3 mL of PBS, respectively. Then, samples were incubated with CD45 APC-Cy7 (Biolegend), CD11b PE-Cy7 (EBioscience), Ly6G BV510 (Biolegend), and CD16/CD32 (Fc-block, EBioscience) for 30 minutes at 37 °C. Thirty minutes later, cells were washed, fixed, and ran on a Beckman Coulter Cytoflex located in the University of Utah Flow Cytometry Core.

whole blood leukocytes = experiment: Whole blood WBC and neutrophil counts (flow cytometry); assay type: in vivo, mouse (outbred Swiss Webster); conditions: 24 hours after CLP; nNIF 1 mg/kg IV at 4 and 10 hours after CLP; N=3-5
Procedure: as §1

TNF-α = experiment: Peritoneal fluid cytokine multiplex array, TNF-α; assay type: in vivo, mouse (outbred Swiss Webster); conditions: 24 h after CLP; nNIF 1 mg/kg at 4 and 10 hours; compared to all other treatment groups; N=5-9
Procedure: (§2) Peritoneal fluid cytokines were analyzed using a mouse Cytokine/Chemokine Panel I Multiplex Array (Millipore Sigma catalog# HCYTMAG60-PMX41) according to manufacturer’s instructions on a Luminex 200 instrument. Bacterial counts in whole blood and peritoneal lavage were determined 24 hours after CLP. Briefly, peritoneal fluid and blood samples were collected, serially diluted, plated on LB-agar dishes, and incubated at 37°C for 24 hours. The number of bacterial colonies was counted and expressed as CFU/mL.

IL-6 = experiment: Peritoneal fluid cytokine multiplex array, IL-6; assay type: in vivo, mouse (outbred Swiss Webster); conditions: 24 h after CLP; nNIF 1 mg/kg at 4 and 10 hours; N=5-9
Procedure: as §2

IL-10 = experiment: Peritoneal fluid cytokine multiplex array, IL-10; assay type: in vivo, mouse (outbred Swiss Webster); conditions: 24 h after CLP; nNIF 1 mg/kg at 4 and 10 hours; N=5-9
Procedure: as §2

[5] = single dose 10 mg/kg, retro-orbital venous injection; LC/MS/MS; N=2-3 mice/time point
Procedure: PK plasma sample generation – Mature Swiss-Webster mice were inject ed with nNIF (10 mg/kg,
0.003% DMSO in PBS) via retro-orbital venous injection. Blood samples were obtain ed via
cheek bleed and cardiac puncture at 5, 15, 30, and 45 minutes, and at 1, 4, 8, 12, 24, and 48 hours
after nNIF injection. Only three blood samples were drawn from each indiv idual mouse, and
multiple mice were used to generate 2 -3 plasma samples per timepoint for PK analysis. Blood
samples were collected i n heparin coated capillary tubes, centrifuged at 1000 rpm for 10 minutes,
and snap-frozen in liquid nitrogen. Plasma samples were kept frozen at -80°C until analysis.
Mouse plasma PK quantitative bioanalysis – Flash -frozen mouse samples were thawed on ice
and spiked with 100 nM nNIF-H; precipitated with five volumes of 90% acetonitrile, 1% acetic
acid, and 0.1% formic acid in water; and filtered through a Phree Phosphol ipid Removal
Extraction Plate (Pheno menex). Standards with known concent rations of nNIF (100 pM to 25
μM) and nNIF-H (100 n M) spiked into mouse plasma were p repared using the same methods.
Supernatants were an alyzed by LC/MS/MS on an ExionLC UHPLC system coupled to a QTRAP […]
positive-ion mode. Mass transitions (m/z) used for quantitation were 846.9/ 976.1 and
determined from the nNIF/nNIF-H peak area ratio in extracted-ion chromat ograms compared […]

neutrophils = neutrophils exposed to nNIF; cited from earlier work
From the text: When considering the low DNA staining on confocal imaging of peritoneal leukocytes, it may be that the NET inhibition contributes to decreased endothelial dysfunction ([48]) and prevents immunothrombosis ([22]) which then leads to decreased inflammation. Alternatively, or in combination, the lack of NETs may lead to decreased opportunities to capture bacteria and thereby limit the chance that circulating PMNs will recognize and become acti ...

[6] = nNIF 1 mg/kg IV at 4 and 10 hours after CLP

| Molecule | peripheral blood bacterial CFUs at 24 hours [1] | relative abundance of Enterobacteriaceae in stool and peritoneal fluid [2] | Bray-Curtis distance of peritoneal fluid microbiome from stool microbiome [2] | illness severity score at 48 hours ([3]; nNIF 0.5 mg/kg IV at 4 and 10 hours after CLP) | illness severity score at 24 hours [3, 6] | illness severity score at 48 hours [3, 6] | peritoneal WBC and neutrophil counts [4] | whole blood white blood cell and neutrophil counts (whole blood leukocytes) | whole blood bacterial CFUs at 96 hours ([1]; 96 hours after CLP, nNIF 1 mg/kg, elevated at 24 hours, meropenem comparator 8 mg/kg, N=3-4) | TNF-α level in peritoneal fluid (TNF-α) | IL-6 level in peritoneal fluid (IL-6) | IL-10 level in peritoneal fluid (IL-10) | peritoneal fluid and stool microbiomes (beta diversity, Bray-Curtis, PERMANOVA) ([2]; 16S rRNA V3/V4 sequencing, N=5-7 per group) | nNIF plasma concentration-time course [5] | neutrophil ability to generate reactive-oxygen species and phagocytize E. coli bioparticles (neutrophils) |
| --- | --- | --- | --- | --- | --- | --- | --- | --- | --- | --- | --- | --- | --- | --- | --- |
| C[C@@H](O)[C@H]1C(=O)N2C(C(=O)O)=C(S[C@@H]3CN[C@H](C(=O)N(C)C)C3)[C@H](C)[C@H]12 [meropenem, reference compound] | statistically significant decrease | decreased in stool and peritoneal fluid | more similar stool and peritoneal microbiomes |  |  |  |  |  |  |  |  |  |  |  |  |
| KFNKPFVFLMIEQNTKSPLFMGKVVNPTQ-OH [nNIF, neonatal NET-Inhibitory Factor] | higher CFUs | did not affect their abundances | as dissimilar from their stool counterparts as were vehicle controls | improvement in the illness severity scores | improvement in the illness severity scores | improvement in the illness severity scores | without altering peritoneal WBC and neutrophil counts | without affecting white blood cell or neutrophil counts | returned to meropenem alone treatment levels | decreased TNF-α levels in peritoneal fluid | decreased compared to meropenem treated mice but not compared to the nNIF-SCR treatment group | lack of an nNIF-associated alteration in IL-10 levels | did not alter the peritoneal fluid and stool microbiomes | initial rapid decrease in nNIF plasma concentrations followed by a slower rate of decay | still maintain their ability |
